Assay results: PMC7665192, “A natriuretic peptide from Arabidopsis thaliana (AtPNP-A) can modulate catalase 2 activity” (Scientific Reports, 2020)
Positions of bridges follow the written chain, without caps; N, C: chain ends. Residues, ends and D or L forms follow the SMILES beside them. *: point of attachment. Biotin = O=C1N[C@H]2[C@H](CS[C@H]2CCCCC(=O)*)N1

Assays:
[1] = target: T1, bovine liver CAT (Bos taurus, UniProt P00432); assay: SPR kinetic analysis, bovine liver CAT immobilized on CM5 chip; assay type: binding
T1 construct: bovine liver CAT (C-40; Sigma); purchased Sigma C-40; host or cells: bovine liver (tissue-derived enzyme)
T1 sequence (P00432 2-527 limits assumed): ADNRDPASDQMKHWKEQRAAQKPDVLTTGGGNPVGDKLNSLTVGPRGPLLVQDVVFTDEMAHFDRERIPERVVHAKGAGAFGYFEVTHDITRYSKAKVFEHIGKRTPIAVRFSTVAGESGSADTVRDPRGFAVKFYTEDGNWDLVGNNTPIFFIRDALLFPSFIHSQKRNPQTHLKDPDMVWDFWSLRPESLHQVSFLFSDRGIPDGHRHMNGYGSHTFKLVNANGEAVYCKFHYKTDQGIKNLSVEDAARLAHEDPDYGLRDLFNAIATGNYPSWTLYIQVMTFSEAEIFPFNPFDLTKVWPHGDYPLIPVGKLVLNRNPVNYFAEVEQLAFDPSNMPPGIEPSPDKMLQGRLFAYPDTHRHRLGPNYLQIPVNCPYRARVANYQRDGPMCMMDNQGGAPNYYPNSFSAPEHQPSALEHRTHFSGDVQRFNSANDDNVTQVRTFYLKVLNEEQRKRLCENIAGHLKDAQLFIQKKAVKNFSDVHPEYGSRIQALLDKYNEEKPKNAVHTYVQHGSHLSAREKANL
Method: (§1) SPR experiments were performed at 20 °C on Biacore T100 instrument operated using Biacore T100 control software (version 2.0.2, GE Healthcare Lifesciences) using Series S CM5 or NTA sensor chips as described in[21]. Kinetic analyses were performed at the flow of 100 μL min^−1 with pAtPNP-A (at 3.78 μM and consecutive twofold dilutions; 11 injections included) employed as a ligand and bovine liver CAT (C-40; Sigma) used as an analyte and immobilized on the active surface of the Series S CM5 sensor chip with amine coupling kit, while the surface regeneration was done with solution of glycine, pH 2.0, and the final sensorgram was generated with Scrubber (BioLogic Software Pty Ltd).

[2] = system: bovine CAT; assay: Isothermal titration calorimetry (ITC); assay type: binding; conditions: 100 μM pAtPNP-A as titrant, PBS pH 7.4, 25 °C, 30 injections
Method: ITC experiments were undertaken using MicroCal iTC200 (Malvern Panalytical) calorimeter. The titrations were conducted at 25 °C in PBS buffer at pH 7.4, with 100 μM pAtPNP-A used as a titrant. Total number of injections was set at 30, reference power was 11 μcal s^−1, initial delay was 60 s, and stirring speed was 750 rpm.

[3] = system: CAT; assay: Total CAT activity in protein extracted from WT seedlings; assay type: biochemical, Arabidopsis thaliana; conditions: 1 nM
Method: Enzymatic activity of CAT isozymes and total CAT activities of protein extracted from WT and atpnp-a or cat2-2 mutant lines, when indicated sprayed with 1 nM pAtPNP-A or pScr 20 min before harvesting, were determined zymographically and spectrophotometrically, as described in[56]. Relative quantification of intensity of bands corresponding to different CAT isoforms was performed with ImageJ version 1.48 (https://imagej.nih.gov/ij/). Enzymatic activity of the rCAT2 in the presence of absence of 100 nM rAtPNP-A, pAtPNP-A or pScr were determined with the use of Amplex Red catalase assay kit (Invitrogen) according to the manufacturer’s instructions.
Figure 3 AtPNP-A directly interacts with CAT2 to modulate its enzymatic activity in vitro. (a) Zymogram depicting changes in the enzymatic activity of CAT isoforms extracted from wild type (WT) or cat2-2 knockout mutant seedlings in response to 1 nM pAtPNP-A or pScr. Densitometric semi-quantification of bands corresponding to CAT2, normalized to the loading control (dark-coloured band on zymogram) for WT samples treated with 1 nM pAtPNP-A or pScr (mean ± SD, Student’s t-test, n = 3, P < 0.05). […] (b) Total CAT activity in protein extracted from WT seedlings assayed with Amplex Red catalase assay kit in the presence of 1 nM pAtPNP-A, rAtPNP-A, or pScr. […] (c) Enzymatic activity of rCAT2 in the presence of 100 nM pAtPNP-A, rAtPNP-A, or pScr.

[4] = system: rCAT2; assay: SPR of CAT2 and AtPNP-A recombinant proteins, CM5 chip, both configurations; assay type: binding, Arabidopsis thaliana; conditions: amine coupling, 20 °C
Method: N-terminally 6xHis-tagged AtPNP-A and CAT2 proteins were expressed in BL21 (DE3) One Shot E. coli cells (Life Technologies), purified by affinity chromatography with Ni–NTA beads (Qiagen) and HisTrap HP column (GE Healthcare Lifesciences) as described in[21]. The purity of preparations was verified on 12.5% SDS-PAGE, stained with Coomassie Brilliant Blue (Bio-Rad). Protein identities were confirmed in MS analysis, and protein concentration was determined according to the method of Bradford using BSA as a standard.
as §1
Supplementary Figure S3. In vitro association of AtPNP-A and CAT2 recombinant proteins.
(a) Recombinant protein preparations used in SPR analyses. […]

Molecule | Chi2, average squared residual ([1]; SPR kinetic fit, 20 °C) | U-value, uniqueness value for kinetic rate constants ([1]; SPR kinetic fit, 20 °C) | Specificity of binding to bovine CAT ([1]; SPR, both ligand-analyte configurations, amine coupling) | ITC: conformational changes on binding [2] | Total CAT activity of protein extracts ([3]; WT seedling protein, Amplex Red kit, mean ± SD, n = 3, P < 0.05) | H2O2 breakdown by WT seedling protein extract ([3]; total protein extracted from WT seedlings, n = 3) | SPR binding of recombinant AtPNP-A to CAT2 [4]
CC(C)C[C@@H]1NC(=O)[C@H](CC(N)=O)NC(=O)[C@H](CC(N)=O)NC(=O)[C@H](CCCCN)NC(=O)[C@H](C(C)C)NC(=O)CNC(=O)[C@H](C(C)C)NC(=O)[C@H](C(C)C)NC(=O)[C@H](CC(C)C)NC(=O)[C@H]([C@@H](C)O)NC(=O)[C@H](CCC(=O)O)NC(=O)[C@H](CCCNC(=N)N)NC(=O)[C@H](CCC(N)=O)NC(=O)[C@H]([C@@H](C)O)NC(=O)CNC(=O)[C@H](Cc2ccc(O)cc2)NC(=O)[C@@H](NC(=O)[C@H](C)NC(=O)[C@H](CO)NC(=O)[C@H](CCCNC(=N)N)NC(=O)[C@@H](NC(=O)[C@H](Cc2ccc(O)cc2)NC(=O)[C@@H]2CCCN2)[C@@H](C)O)CSSC[C@@H](C(=O)NCC(=O)N[C@@H](CCCNC(=N)N)C(=O)N[C@@H](CCCNC(=N)N)C(=O)N[C@@H](Cc2ccc(O)cc2)C(=O)N[C@@H](CCCNC(=N)N)C(=O)N[C@H](C(=O)N[C@@H](CCCNC(=N)N)C(=O)N[C@@H](CCCCNC(=O)CCCC[C@@H]2SC[C@@H]3NC(=O)N[C@@H]32)C(=O)O)C(C)C)NC(=O)[C@H](C)NC(=O)[C@H](CCCNC(=N)N)NC(=O)CNC(=O)[C@H](CC(N)=O)NC(=O)[C@H](CCC(N)=O)NC(=O)[C@H](Cc2c[nH]c3ccccc23)NC1=O [pAtPNP-A] (H-PYTRSACYGTQRETLVVGVKNNLWQNGRACGRRYRVRK(Biotin)-OH; disulfide 7-30; N-terminus and C-terminus assumed) | 10.4 RU2 | 2 | points to a specific interaction | significant conformational changes occurring as a result of pAtPNP-A binding to bovine CAT | elevated total CAT activity | more rapid H2O2 breakdown | –
AtPNP-A: An A. thaliana PNP, termed AtPNP-A (At2g18660; Q9ZV52) | – | – | – | – | – | – | specific AtPNP-A and CAT2 interaction in vitro
